From US8148371B2, “Adenine compound and use thereof” (Dainippon Sumitomo Pharma Co., Ltd., priority 2002, dated 2012)

How the values were obtained:
[1] = Metabolic stability on liver S9 of rat; conditions: rat liver S9, test compound 1 μM, 37° C.
Protocol: The compound of the present invention is added to liver S9 solution, and the mixture is incubated at 37±0.5° C. for 5 minutes to 2 hours. By quantitatively analyzing at the definite interval the amount of the compound of the present invention remaining in the liver S9 solution with HPLC (high performance liquid chromatography), etc., the constant of quenching velocity is calculated and the half life is calculated.
The reaction on river S9 of a rat was carried out on a 96-well plate by using a robot for screening by Tecan Company. S9 solution was prepared by adding to 10 ml of liver S9 of a rat, 20 ml of 250 mM Kpi (pH 7.4) and 20 ml of deionized water. Cofactor solution was prepared by dissolving NADPH (220 mg) in deionized water (40.5 ml) to give finally a 6 mM solution. IS (Internal Standard) solution was prepared by adding 300 μL of IS solution (1 mM DMSO solution) to 30 ml of acetonitrile solution (100 times dilution). The test compound (1 μM DMSO solution) was dissolved in an incubator at 37° C., 35 μL of it was poured into each well of a 96-well plate (24 samples/plate and then, plates (a sample plate, a 96 well-plate for dilution, deep well plates for reaction and recovering, a plate for extraction of the solid phase) and the test samples (S9 solution, Cofactor solution, IS (Internal Standard) solution, Stop solution, acetonitrile for elution) were set to the specified position in the booth of the robot. The reaction started (the concentration of the test compound was 1 μM) and the mixture was incubated at 37° C. under stirring. The solid phase was extracted and at the same time the internal standard for analysis was added. To the recovered sample (200 μL/well) was added 50 μL of acetonitrile per each well and to 2 plates of FALCON Deep well were poured 100 μL of the solution per well. By subjecting to the LC/MS analysis, the chromatogram of the test sample and the internal standard were described and the peak area was calculated. And then, the stability (residual rate after reaction) was calculated by the internal standard method.

cells of rat spleen = test: cells; format: cell-based, SD rat; conditions: for minimal effective concentration: 24 h, read-out: Minimum effective concentration (interferon inducing activity)

Structure (SMILES)	Residual rate [1]	minimal effective concentration (cells of rat spleen)	Minimum effective concentration (interferon inducing activity) (cells of rat spleen)
CCCCOc1nc(N)c2nc(O)n(Cc3ccc(C(=O)OCc4ccccc4)cc3)c2n1 [Example 14, 2-Butoxy-8-hydroxy-9-(4-benzyloxycarbonylbenzyl)adenine]	22%	–	–
CCCCOc1nc(N)c2nc(O)n(Cc3ccc(C(=O)OC)c(C(=O)OC)c3)c2n1 [Example 90, 2-Butoxy-9-(3,4-dimethoxycarbonylbenzyl)-8-hydroxyadenine]	3%	0.0003 µM	–
COCCOc1nc(N)c2nc(O)n(Cc3cccc(CC(=O)O)c3)c2n1 [Comparative example 27, 9-(3-Carboxymethylbenzyl)-8-hydroxy-2-(2-methoxyethoxy)adenine, reference compound]	–	0.3 µM	–
CCCCOc1nc(N)c2nc(O)n(Cc3ccc(C(C)C(=O)O)cc3)c2n1 (centres unmarked) [compound 31, 2-Butoxy-8-hydroxy-9-[4-(1-carboxyethyl)benzyl]adenine, reference compound]	–	0.03 µM	–
CCCCOc1nc(N)c2nc(O)n(Cc3ccc(CC(=O)OC)o3)c2n1 [Example 81, 2-Butoxy-8-hydroxy-9-(5-methoxycarbonylmethylfurfuryl)adenine]	2%	0.001 µM	–
COCCOc1nc(N)c2[nH]c(=O)n(Cc3cccc(CC(=O)OC)c3)c2n1 [Example 96, 8-Hydroxy-9-(3-methoxycarbonylmethylbenzyl)-2-(2-methoxyethoxy)adenine]	0%	0.003 µM	–
Cc1ccc(Cn2c(O)nc3c(N)nc(CCC(=O)O)nc32)cn1 [compound 17, reference compound]	–	0.3 µM	–
Nc1nc(SCc2cccc(C(=O)O)c2)nc2c1nc(O)n2Cc1ccccc1 [compound 34, 9-Benzyl-8-hydroxy-2-[(3-carboxybenzyl)thio]adenine, reference compound]	–	0.3 µM	–
CCCCOc1nc(N)c2[nH]c(=O)n(Cc3cccc(CCC(=O)OC)c3)c2n1 [Example 84, 2-Butoxy-8-hydroxy-9-(3-methoxycarbonylethylbenzyl)adenine]	1%	0.01 µM	–
COC(=O)c1ccc(CSc2nc(N)c3nc(O)n(Cc4ccccc4)c3n2)cc1 [Example 104, 9-Benzyl-8-hydroxy-2-[(4-methoxycarbonylbenzyl)thio]adenine]	–	0.1 µM	–
Nc1nc(OCC(=O)O)nc2c1nc(O)n2Cc1ccccc1 [compound 16, 9-Benzyl-8-hydroxy-2-calboxylmethoxyadenine, reference compound]	–	1 µM	–
COC(=O)Cc1cccc(CSc2nc(N)c3nc(O)n(Cc4ccccc4)c3n2)c1 [Example 105, 9-Benzyl-8-hydroxy-2-[(3-methoxycarbonylmethylbenzyl)thio]adenine]	1%	0.3 µM	–
Nc1nc(CCC(=O)O)nc2c1nc(O)n2Cc1ccc(CC(=O)O)cc1 [compound 18, 2-(2-Carboxylethyl)-9-(4-carboxylmethylbenzyl)-8-hydroxyadenine, reference compound]	–	3 µM	–
CCCCOc1nc(N)c2nc(O)n(Cc3ccc(OCC(=O)OC)c(Br)c3)c2n1 [Example 23, 2-Butoxy-8-hydroxy-9-{3-bromo-4-(methoxycarbonylmethoxy)benzyl}adenine]	–	0.1 µM	–
CCCCOc1nc(N)c2nc(O)n(Cc3ccc(C(=O)O)c(C(=O)O)c3)c2n1 [compound 23, 2-Butoxy-9-(3,4-dicarboxylbenzyl)-8-hydroxyadenine, reference compound]	–	0.1 µM	–
COC(=O)CCc1nc(N)c2nc(O)n(Cc3ccc(C)nc3)c2n1 [Example 66, 8-Hydroxy-2-methoxycarbonylethyl-9-{(6-methyl-3-pyridyl)methyl}adenine]	0%	–	1 nM
CCCCOc1nc(N)c2nc(O)n(Cc3ccc(CC(=O)O)o3)c2n1 [compound 19, 2-Butoxy-9-(5-carboxylmethylfurfuryl)-8-hydroxyadenine, reference compound]	–	0.03 µM	–
CCCCOc1nc(N)c2nc(O)n(Cc3ccc(OC(O)CCC(=O)OC)cc3)c2n1 (centres unmarked) [Example 95, 2-Butoxy-9-{4-(1-hydroxy-3-methoxycarbonylpropoxy)benzyl}-8-hydroxyadenine]	4%	0.001 µM	–
CCCCOc1nc(N)c2nc(O)n(Cc3ccc(CC(=O)N(C)C)cc3)c2n1 [Example 78, 2-Butoxy-8-hydroxy-9-(4-dimethylcarbamoylmethylbenzyl)adenine]	–	3e-05 µM	–
CCCCOc1nc(N)c2nc(O)n(Cc3ccc(CC(=O)OCCN(C)C)cc3)c2n1.Cl [Example 72, 2-Butoxy-8-hydroxy-9-{4-(2-dimethylaminoethoxycarbonyl)methylbenzyl}adenine hydrochloride]	4%	–	–
COC(=O)CCc1nc(N)c2nc(O)n(Cc3ccc(CC(=O)OC)cc3)c2n1 [Example 67, 8-Hydroxy-2-(2-methoxycarbonylethyl)-9-(4-methoxycarbonylmethylbenzyl)adenine]	0%	0.001 µM	–
CCCCOc1nc(N)c2nc(O)n(Cc3ccc(C(N)=O)nc3)c2n1 [Example 83, 2-Butoxy-9-{(6-carbamoyl-3-pyridyl)methyl}-8-hydroxyadenine]	–	0.0003 µM	–

Structure (SMILES)	Residual rate [1]	minimal effective concentration (cells of rat spleen)	Minimum effective concentration (interferon inducing activity) (cells of rat spleen)
Nc1nc(CC(=O)N2CCOCC2)nc2c1nc(O)n2Cc1ccccc1 [Example 110, 9-Benzyl-8-hydroxy-2-(morpholinocarbonylmethyl)adenine]	–	0.1 µM	–
CCCCOc1nc(N)c2nc(O)n(Cc3ccc(SC4CCOC4=O)nc3)c2n1 (centres unmarked) [Example 93]	–	–	3 nM
Nc1nc(CC(=O)OCCF)nc2c1nc(O)n2Cc1ccccc1 [Example 109, 9-Benzyl-2-(2-fluoroethoxycarbonyl)methyl-8-hydroxyadenine]	0%	0.03 µM	–
Nc1nc(SCC(=O)N2CCOCC2)nc2c1nc(O)n2Cc1ccccc1 [Example 52, 9-Benzyl-8-hydroxy-2-(morphorinocarbonylmethyl)thioadenine]	24%	–	–
COC(=O)Cc1ccc(CSc2nc(N)c3nc(O)n(Cc4ccccc4)c3n2)cc1 [Example 106, 9-Benzyl-8-hydroxy-2-[(4-methoxycarbonylmethylbenzyl)thio]adenine]	3%	0.1 µM	–
Nc1nc(SCc2ccc(C(=O)O)cc2)nc2c1nc(O)n2Cc1ccccc1 [compound 35, 9-Benzyl-8-hydroxy-2-[(4-carboxybenzyl)thio]adenine, reference compound]	–	1 µM	–
CCCCOc1nc(N)c2nc(O)n(Cc3ccc(CC(N)=O)cc3)c2n1 [Example 76, 2-Butoxy-8-hydroxy-9-(4-carbamoylmethylbenzyl)adenine]	–	0.0001 µM	–
Nc1nc(CCC(=O)O)nc2c1nc(O)n2Cc1ccccc1 [Comparative example 15, 9-Benzyl-2-(2-carboxyethyl)-8-hydroxyadenine, reference compound]	–	1 µM	–
CSC(=O)CCc1nc(N)c2nc(O)n(Cc3ccccc3)c2n1 [Example 63]	0%	–	100 nM
Nc1nc(SCc2ccc(CC(=O)O)cc2)nc2c1nc(O)n2Cc1ccccc1 [compound 37, 9-Benzyl-8-hydroxy-2-[(4-carboxymethylbenzyl)thio]adenine, reference compound]	–	1 µM	–
CC(C)OC(=O)Cc1nc(N)c2nc(O)n(Cc3ccccc3)c2n1 [Example 108, 9-Benzyl-8-hydroxy-2-(isopropoxycarbonylmethyl)adenine]	3%	0.03 µM	–
CCCCOc1nc(N)c2nc(O)n(Cc3ccc(N4CCC(C(=O)OC)CC4)nc3)c2n1 [Example 87, 2-Butoxy-8-hydroxy-9-{6-(4-methoxycarbonyl-1-piperidyl)-3-pyridylmethyl}adenine]	–	0.001 µM	–
CCCCOc1nc(N)c2nc(O)n(Cc3ccc(OC4CCOC4=O)cc3)c2n1 (centres unmarked) [Example 94, 2-Butoxy-9-{4-(γ-butyrolactonyloxy)benzyl}-8-hydroxyadenine]	2%	–	–
CCCCOc1nc(N)c2nc(O)n(Cc3ccc(C(=O)SC)nc3)c2n1 [Example 82, 2-Butoxy-8-hydroxy-9-{(6-S-methylthiocarbonyl-3-pyridyl)methyl}adenine]	2%	–	100 nM
Nc1nc(SCc2cccc(CC(=O)O)c2)nc2c1nc(O)n2Cc1ccccc1 [compound 36, 9-Benzyl-8-hydroxy-2-[(3-carboxymethylbenzyl)thio]adenine, reference compound]	–	3 µM	–
CCCCOc1nc(N)c2nc(O)n(Cc3ccc(CC(=O)NC)cc3)c2n1 [Example 77, 2-Butoxy-8-hydroxy-9-(4-methylcarbamoylmethylbenzyl)adenine]	–	0.0003 µM	–
CCCCOc1nc(N)c2nc(O)n(Cc3ccc(CN4CCOCC4)cc3)c2n1 [Example 79, 2-Butoxy-8-hydroxy-9-(4-morpholinomethylbenzyl)adenine]	17%	0.0003 µM	–
CCCCOc1nc(N)c2nc(O)n(Cc3cccc(CCC(=O)O)c3)c2n1 [compound 20, reference compound]	–	0.03 µM	–
CCCCOc1nc(N)c2nc(O)n(Cc3ccc(N4CCC(C(=O)O)CC4)nc3)c2n1 [compound 21, reference compound]	–	0.003 µM	–
CCCCOC(=O)Cc1nc(N)c2nc(O)n(Cc3ccccc3)c2n1 [Example 107, 9-Benzyl-2-butoxycarbonylmethyl-8-hydroxyadenine]	3%	0.1 µM	–
CCOC(=O)CCCCSc1nc(N)c2nc(O)n(Cc3ccccc3)c2n1 [Example 57, 9-Benzyl-2-(4-ethoxycarbonylbutyl)thio-8-hydroxyadenine]	3%	–	–
CCCCOc1nc(N)c2nc(O)n(Cc3ccc(CCC(=O)OCC)cc3)c2n1 [Example 86, 2-Butoxy-9-(4-ethoxycarbonylethylbenzyl)-8-hydroxyadenine]	18%	–	–
